Test results taken from patent US20210403485A1, “PYRAZOLOPYRIMIDINE DERIVATIVE AS SELECTIVE TRK INHIBITOR” (SHANDONG LUYE PHARMACEUTICAL CO., LTD., priority 2018, published 2021).
Values belong to the compound of their own block, whether it stands above or below them.

What was measured:
Ba/F3 SLC34A2-ROS1-WT = molecular target: T1, Ba/F3 SLC34A2-ROS1-WT (Homo sapiens, UniProt P08922); test: Inhibitory activity against cell proliferation (CellTiter-Glo, 72 hours); format: cell-based; settings: read-out: Half maximal inhibitory concentration IC50 of cells, Ba/F3 SLC34A2-ROS1-WT
T1 construct: fused on or other part: N-terminal part of SLC34A2 as fusion partner (part of the key); O95436 (Sodium-dependent phosphate transport protein 2B)
T1 sequence (P08922 whole entry, stated change not applied, the tested form may be a part): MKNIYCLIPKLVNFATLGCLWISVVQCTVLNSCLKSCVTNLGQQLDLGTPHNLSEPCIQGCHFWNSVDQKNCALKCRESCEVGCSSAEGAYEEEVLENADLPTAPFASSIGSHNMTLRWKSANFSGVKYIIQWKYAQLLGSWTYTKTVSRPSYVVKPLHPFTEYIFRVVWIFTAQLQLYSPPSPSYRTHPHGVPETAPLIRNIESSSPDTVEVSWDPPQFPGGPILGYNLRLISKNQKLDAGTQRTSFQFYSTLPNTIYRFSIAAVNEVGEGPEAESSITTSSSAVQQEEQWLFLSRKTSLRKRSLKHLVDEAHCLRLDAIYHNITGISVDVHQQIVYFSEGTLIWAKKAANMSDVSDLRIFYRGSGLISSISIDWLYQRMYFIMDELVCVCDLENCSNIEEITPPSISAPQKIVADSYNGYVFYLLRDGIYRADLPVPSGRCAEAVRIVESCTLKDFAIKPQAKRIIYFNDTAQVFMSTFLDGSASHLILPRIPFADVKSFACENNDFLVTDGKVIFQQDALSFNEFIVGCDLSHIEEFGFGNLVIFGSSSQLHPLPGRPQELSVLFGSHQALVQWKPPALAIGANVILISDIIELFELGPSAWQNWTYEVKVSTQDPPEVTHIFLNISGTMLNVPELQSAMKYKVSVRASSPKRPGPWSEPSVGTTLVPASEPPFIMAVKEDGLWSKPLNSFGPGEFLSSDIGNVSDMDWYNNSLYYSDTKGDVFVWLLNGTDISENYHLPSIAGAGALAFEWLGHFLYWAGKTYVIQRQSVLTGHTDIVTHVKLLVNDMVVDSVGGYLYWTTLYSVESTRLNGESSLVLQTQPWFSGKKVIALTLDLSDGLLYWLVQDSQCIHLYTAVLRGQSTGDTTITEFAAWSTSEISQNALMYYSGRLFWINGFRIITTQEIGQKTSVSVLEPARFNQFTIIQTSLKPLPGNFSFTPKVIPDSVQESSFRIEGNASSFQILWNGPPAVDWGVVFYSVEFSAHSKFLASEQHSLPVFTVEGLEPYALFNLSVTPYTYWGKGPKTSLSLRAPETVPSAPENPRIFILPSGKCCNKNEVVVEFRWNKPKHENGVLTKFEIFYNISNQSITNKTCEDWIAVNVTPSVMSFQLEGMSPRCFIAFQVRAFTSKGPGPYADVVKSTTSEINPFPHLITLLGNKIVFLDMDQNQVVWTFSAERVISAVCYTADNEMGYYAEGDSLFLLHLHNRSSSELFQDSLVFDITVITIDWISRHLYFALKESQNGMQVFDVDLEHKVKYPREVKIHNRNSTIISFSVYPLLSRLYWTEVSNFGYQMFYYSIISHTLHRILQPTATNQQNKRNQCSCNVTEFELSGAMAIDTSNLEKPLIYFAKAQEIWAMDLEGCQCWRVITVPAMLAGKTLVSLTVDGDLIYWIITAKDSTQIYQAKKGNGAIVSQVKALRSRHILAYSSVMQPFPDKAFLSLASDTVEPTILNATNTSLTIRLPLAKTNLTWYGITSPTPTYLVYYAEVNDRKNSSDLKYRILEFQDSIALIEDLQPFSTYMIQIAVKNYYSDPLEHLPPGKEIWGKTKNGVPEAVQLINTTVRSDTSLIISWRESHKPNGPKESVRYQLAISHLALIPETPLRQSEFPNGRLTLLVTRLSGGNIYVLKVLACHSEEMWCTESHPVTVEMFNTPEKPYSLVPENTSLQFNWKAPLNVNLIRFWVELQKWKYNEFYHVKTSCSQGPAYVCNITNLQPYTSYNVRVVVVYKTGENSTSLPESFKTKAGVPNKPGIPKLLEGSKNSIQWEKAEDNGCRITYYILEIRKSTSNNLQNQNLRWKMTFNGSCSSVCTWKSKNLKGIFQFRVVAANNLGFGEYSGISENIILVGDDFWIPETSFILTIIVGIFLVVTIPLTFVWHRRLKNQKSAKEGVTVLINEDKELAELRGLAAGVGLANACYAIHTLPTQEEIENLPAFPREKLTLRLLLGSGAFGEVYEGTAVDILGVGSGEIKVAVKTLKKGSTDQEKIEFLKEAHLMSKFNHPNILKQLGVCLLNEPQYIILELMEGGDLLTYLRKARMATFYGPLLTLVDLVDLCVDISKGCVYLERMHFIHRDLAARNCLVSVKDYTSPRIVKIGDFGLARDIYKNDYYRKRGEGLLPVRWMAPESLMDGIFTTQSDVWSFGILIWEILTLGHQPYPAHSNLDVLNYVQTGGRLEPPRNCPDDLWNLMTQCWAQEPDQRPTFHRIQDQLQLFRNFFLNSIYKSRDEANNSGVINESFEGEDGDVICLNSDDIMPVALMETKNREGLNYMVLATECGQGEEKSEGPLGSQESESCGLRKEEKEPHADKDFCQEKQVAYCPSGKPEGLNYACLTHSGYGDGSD
Description: (§1) Adenosine Triphosphate (ATP) is an energy carrier commonly used in various life activities in nature, and is the minimum unit for energy storage and transfer. The CellTiter-Glo™ cell viability assay kit uses luciferase as an assay agent, which requires the involvement of ATP in luminescence. The CellTiter-Glo™ reagent is added into cell culture medium to measure the luminescence value. The luminescence signal is directly proportional to the amount of ATP in the system, and the ATP is positively correlated with the number of viable cells. Therefore, the proliferation of cells can be detected by detecting the ATP content using the CellTiter-Glo kit.
(§2) a) Cells in the logarithmic growth phase were collected and counted using a […]. The cell viability was detected by the trypan blue exclusion method, and the cell viability was kept over 90%.
(§3) b) The cell concentration was adjusted; 90 μL of the cell suspension was added to a 96-well plate.
(§4) a) A 10-fold compound solution was prepared, with the highest concentration being 10 μM (a total of 9 concentrations, 3-fold dilution). 10 μL of compound solution was added to each well of a 96-well plate inoculated with cells, and three duplicate wells were set for each compound concentration.
(§5) a) The CTG reagent was thawed and the cell plate was equilibrated to room temperature for 30 minutes.
(§6) b) An equal volume of CTG solution was added to each well.
(§7) c) The plate was shaken on an orbital shaker for 5 minutes to lyse the cells.
(§8) d) The cell plate was placed at room temperature for 20 minutes to stabilize the luminescence signal.
(§9) e) The luminescence value was read.
(§10) The data were analyzed using GraphPad Prism 5.0 software, fitted with nonlinear S-curve regression to give dose-response curves, and IC50 values were calculated therefrom.

[1] = Pharmacokinetic test of compounds in mice (plasma, LC/MS/MS); format: in vivo, male CD-1 mice; settings: for Vd: read-out: Apparent volume of distribution Vd; for AUC(0-t): read-out: Area under the curve AUC0-last; for half-life: read-out: Half-life T1/2 (converted); for Cmax: read-out: Peak concentration Cmax; for Tmax: read-out: Time to peak Tmax
Description: (§11) Experimental purpose: male CD-1 mice aged 7-9 weeks were selected as test animals, and the drug concentrations of the compounds in plasma at different time points after single intravenous injection (IV) and intragastric administration (PO) of the compounds were measured by an LC/MS/MS method, so that the pharmacokinetic behavior of the compounds disclosed herein in mice was studied, and the pharmacokinetic characteristic of the compounds was evaluated.
(§12) Drug preparation: the compounds were all prepared into clear solution by taking 5% DMSO+10% solutol+85% water as vehicle, and were used for administration in IV and PO groups. The dose of each compound administered was: IV, 3 mg/kg; PO, 10 mg/kg.

[2] = Pharmacokinetic test of compounds in rats (plasma, LC/MS/MS); format: in vivo, male SD rats; settings: for AUC(0-t): read-out: Area under the curve AUC0-last
Description: as §11, with “SD rats” for “CD-1 mice”, “rats” for “mice”
as §12

[3] = Animal body weight and general observations, Ba/F3 ETV6-NTRK3 tumor-bearing nude mice
Description: The mice in groups were intragastrically administrated on the next day, and the animal body weight and the long and short diameters of the tumor were measured once every other day.

Ba/F3 LMNA-NTRK1-F589L = molecular target: T2, Ba/F3 LMNA-NTRK1-F589L (Homo sapiens, UniProt P04629, F589L, cells depend on it); test: Inhibitory activity against cell proliferation (CellTiter-Glo, 72 hours); format: cell-based; settings: read-out: Half maximal inhibitory concentration IC50 of cells, Ba/F3 LMNA-NTRK1-F589L
T2 construct: fused on or other part: N-terminal part of LMNA as fusion partner (part of the key); P02545 (Prelamin-A/C)
T2 sequence (P04629 whole entry F589L, the tested form may be a part): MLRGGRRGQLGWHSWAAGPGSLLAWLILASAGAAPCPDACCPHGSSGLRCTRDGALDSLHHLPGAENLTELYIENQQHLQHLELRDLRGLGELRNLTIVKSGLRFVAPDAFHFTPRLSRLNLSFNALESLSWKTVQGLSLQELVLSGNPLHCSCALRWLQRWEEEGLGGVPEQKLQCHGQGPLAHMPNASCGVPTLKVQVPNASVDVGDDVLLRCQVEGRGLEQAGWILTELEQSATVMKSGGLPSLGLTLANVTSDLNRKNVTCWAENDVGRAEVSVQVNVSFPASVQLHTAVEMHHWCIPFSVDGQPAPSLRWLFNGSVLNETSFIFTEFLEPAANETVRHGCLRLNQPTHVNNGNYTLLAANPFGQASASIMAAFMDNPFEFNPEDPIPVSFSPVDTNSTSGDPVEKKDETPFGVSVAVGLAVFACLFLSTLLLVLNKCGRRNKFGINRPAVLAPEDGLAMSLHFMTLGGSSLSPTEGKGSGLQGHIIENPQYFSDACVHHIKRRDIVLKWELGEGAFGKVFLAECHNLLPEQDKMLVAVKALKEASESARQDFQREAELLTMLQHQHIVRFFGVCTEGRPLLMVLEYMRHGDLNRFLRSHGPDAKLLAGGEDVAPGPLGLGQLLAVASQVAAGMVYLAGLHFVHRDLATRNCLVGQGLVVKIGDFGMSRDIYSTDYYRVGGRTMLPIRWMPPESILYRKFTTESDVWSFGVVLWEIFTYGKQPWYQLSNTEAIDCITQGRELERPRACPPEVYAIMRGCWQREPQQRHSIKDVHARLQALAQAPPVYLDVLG
Description: as §1, §2, §3, §4, §5, §6, §7, §8, §9, §10

Ba/F3 LMNA-NTRK1-WT = molecular target: T3, Ba/F3 LMNA-NTRK1-WT (Homo sapiens, UniProt P04629); test: as above; format: cell-based; settings: read-out: Half maximal inhibitory concentration IC50 of cells, Ba/F3 LMNA-NTRK1-WT
T3 construct: fused on or other part: N-terminal part of LMNA as fusion partner (part of the key); P02545 (Prelamin-A/C)
T3 sequence (P04629 whole entry, change not shown, the tested form may be a part): as the sequence (P04629 whole entry F589L, the tested form may be a part) above, with L589F counted along it
Description: as §1, §2, §3, §4, §5, §6, §7, §8, §9, §10

BaF3 ETV6-NTRK3-WT = molecular target: T4, BaF3 ETV6-NTRK3-WT (Homo sapiens, UniProt Q16288); test: as above; format: cell-based; settings: read-out: Half maximal inhibitory concentration IC50 of cells, BaF3 ETV6-NTRK3-WT
T4 construct: fused on or other part: N-terminal part of ETV6 (TEL) as fusion partner (part of the key); P41212 (Transcription factor ETV6)
T4 sequence (Q16288 whole entry, change not shown, the tested form may be a part): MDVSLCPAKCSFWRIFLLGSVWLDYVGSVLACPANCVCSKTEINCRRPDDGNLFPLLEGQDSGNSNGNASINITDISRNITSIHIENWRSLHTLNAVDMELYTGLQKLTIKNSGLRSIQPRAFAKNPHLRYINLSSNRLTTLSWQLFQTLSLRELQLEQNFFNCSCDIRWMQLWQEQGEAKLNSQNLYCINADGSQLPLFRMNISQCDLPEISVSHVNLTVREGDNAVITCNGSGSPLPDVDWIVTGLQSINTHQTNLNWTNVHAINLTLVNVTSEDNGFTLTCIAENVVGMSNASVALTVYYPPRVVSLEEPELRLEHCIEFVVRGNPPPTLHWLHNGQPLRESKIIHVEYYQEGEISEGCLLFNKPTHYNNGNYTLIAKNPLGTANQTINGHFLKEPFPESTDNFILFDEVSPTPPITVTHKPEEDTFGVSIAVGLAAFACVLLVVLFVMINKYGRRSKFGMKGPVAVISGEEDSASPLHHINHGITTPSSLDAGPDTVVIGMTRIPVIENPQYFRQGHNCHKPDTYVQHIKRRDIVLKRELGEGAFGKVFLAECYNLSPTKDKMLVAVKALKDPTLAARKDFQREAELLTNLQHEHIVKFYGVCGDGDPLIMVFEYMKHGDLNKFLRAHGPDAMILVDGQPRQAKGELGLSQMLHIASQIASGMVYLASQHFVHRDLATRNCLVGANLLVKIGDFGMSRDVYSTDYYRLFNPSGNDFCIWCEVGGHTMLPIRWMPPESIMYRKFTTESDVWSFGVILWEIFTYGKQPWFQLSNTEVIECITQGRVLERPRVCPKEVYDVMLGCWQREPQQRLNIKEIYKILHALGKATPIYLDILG
Description: as §1, §2, §3, §4, §5, §6, §7, §8, §9, §10

BaF3 LMNA-NTRK1-G595R = molecular target: T5, BaF3 LMNA-NTRK1-G595R (Homo sapiens, UniProt P04629, G595R, cells depend on it); test: as above; format: cell-based; settings: read-out: Half maximal inhibitory concentration IC50 of cells, BaF3 LMNA-NTRK1-G595R
T5 construct: fused on or other part: N-terminal part of LMNA as fusion partner (part of the key); P02545 (Prelamin-A/C)
T5 sequence (P04629 whole entry G595R, the tested form may be a part): as the sequence (P04629 whole entry F589L, the tested form may be a part) above, with L589F, G595R counted along it
Description: as §1, §2, §3, §4, §5, §6, §7, §8, §9, §10

BaF3 LMNA-NTRK1-G667A = molecular target: T6, BaF3 LMNA-NTRK1-G667A (Homo sapiens, UniProt P04629, G667A, cells depend on it); test: as above; format: cell-based; settings: read-out: Half maximal inhibitory concentration IC50 of cells, BaF3 LMNA-NTRK1-G667A
T6 construct: fused on or other part: N-terminal part of LMNA as fusion partner (part of the key); P02545 (Prelamin-A/C)
T6 sequence (P04629 whole entry G667A, the tested form may be a part): as the sequence (P04629 whole entry F589L, the tested form may be a part) above, with L589F, G667A counted along it
Description: as §1, §2, §3, §4, §5, §6, §7, §8, §9, §10

[4] = male, CD-1, mouse, plasma, IV, 3 mg/kg
[5] = male, CD-1, mouse, plasma, PO, 10 mg/kg

- GI50 (Ba/F3 SLC34A2-ROS1-WT): > 1000 nM
- Apparent clearance Cl ([1]; IV, 3 mg/kg): 37.4 mL/min/kg
- Vd [1, 4]: 0.97 L/kg
- AUC(0-t) [1, 4]: 3.12 µM·h
- half-life [1, 4]: 23.4 min
- AUC(0-t) [1, 5]: 2.89 µM·h
- bioavailability ([1]; male, CD-1, mouse, plasma, PO, 10 mg/kg, read-out: Bioavailability F %): 28%
- Cmax [1, 5]: 1550 nM
- Tmax [1, 5]: 22.8 min
- Apparent clearance Cl ([2]; IV, 3 mg/kg): 45.6 mL/min/kg
- Vd ([2]; male, SD, rat, plasma, IV, 3 mg/kg, read-out: Apparent volume of distribution Vd): 1.7 L/kg
- AUC(0-t) ([2]; male, SD, rat, plasma, IV, 3 mg/kg): 1.7 µM·h
- half-life ([2]; male, SD, rat, plasma, IV, 3 mg/kg, read-out: Half-life T1/2 (converted)): 36 min
- AUC(0-t) ([2]; male, SD, rat, plasma, PO, 10 mg/kg): 1.93 µM·h
- bioavailability ([2]; male, SD, rat, plasma, PO, 10 mg/kg, read-out: Bioavailability F %): 23%
- Cmax ([2]; male, SD, rat, plasma, PO, 10 mg/kg, read-out: Peak concentration Cmax): 944 nM
- Tmax ([2]; male, SD, rat, plasma, PO, 10 mg/kg, read-out: Time to peak Tmax): 48 min
Compound: O=C(Nc1cnn2ccc(N3CCC[C@@H]3c3cc(F)ccc3F)nc12)N1CC[C@H](O)C1 [LOXO-101, larotrectinib, reference compound]
- Rate of change in body weight (%) of day 11 to day 0 ([3]; 60 mg/kg qd): 4.4%
- Body weight ([3]; Day 0, 60 mg/kg qd): 23.8 ± 1.6 g
- Body weight ([3]; Day 3, 60 mg/kg qd): 22.9 ± 2.0 g
- Body weight ([3]; Day 5, 60 mg/kg qd): 23.6 ± 2.2 g
- Body weight ([3]; Day 7, 60 mg/kg qd): 23.9 ± 2.5 g
- Body weight ([3]; Day 9, 60 mg/kg qd): 24.2 ± 2.2 g
- Body weight ([3]; Day 11, 60 mg/kg qd): 24.7 ± 2.7 g

Compound: C[C@@H]1CCc2ncc(F)cc2[C@H]2CCCN2c2ccn3ncc(c3n2)C(=O)N1 [LOXO-195, reference compound]
- GI50 (Ba/F3 LMNA-NTRK1-F589L): 44 nM
- GI50 (Ba/F3 LMNA-NTRK1-WT): 4.9 nM
- GI50 (Ba/F3 SLC34A2-ROS1-WT): 36.7 nM
- GI50 (BaF3 ETV6-NTRK3-WT): 2.6 nM
- GI50 (BaF3 LMNA-NTRK1-G595R): 6.8 nM
- GI50 (BaF3 LMNA-NTRK1-G667A): 24.4 nM
- Apparent clearance Cl ([1]; IV, 3 mg/kg): 11.8 mL/min/kg
- Bioavailability F % ([1]; PO, 10 mg/kg): 74%
- Vd [1, 4]: 0.5 L/kg
- AUC(0-t) [1, 4]: 11.1 µM·h
- half-life [1, 4]: 71.4 min
- AUC(0-t) [1, 5]: 27.3 µM·h
- Cmax [1, 5]: 12700 nM
- Tmax [1, 5]: 22.8 min
- Rate of change in body weight (%) of day 11 to day 0 ([3]; 100 mg/kg bid): 4.9%
- Body weight ([3]; Day 0, 100 mg/kg bid): 22.7 ± 2.7 g
- Body weight ([3]; Day 3, 100 mg/kg bid): 24.4 ± 2.7 g
- Body weight ([3]; Day 5, 100 mg/kg bid): 24.9 ± 2.6 g
- Body weight ([3]; Day 7, 100 mg/kg bid): 25.1 ± 2.8 g
- Body weight ([3]; Day 9, 100 mg/kg bid): 25.4 ± 3.0 g
- Body weight ([3]; Day 11, 100 mg/kg bid): 25.2 ± 3.0 g
